Assay results published in US20080207521A1, “PEPTIDE LIGAND TO IMPAIR CANCER CELL MIGRATION” (priority 2005, published 2008).
Ends that are not written are not given here. * marks the point of attachment. For = O=C*

Assays:
[1] = system: Wnt-5a antisense HB2 cells; assay: Adhesion of Wnt-5a antisense HB2 cells to collagen I (MTS); assay type: cell-based, human; conditions: for adhesion to collagen I, concentration-dependent analysis: 95% pure peptides, different concentrations
Protocol: (§1) The adhesion assay was carried out as previously described (12). Briefly, cells were serum-depleted for 16 h, detached with Versene and allowed to adhere as single cells to collagen I for 60 (MDA-MB-468) or 90 min (HB2) at 37° C. Non-adherent cells were removed by washing with PBS. The adherent cells were incubated with a (3-(4,5-dimethylthiazol-2-yl)-5-(3-carboxymethoxyphenyl)-2-(-4-sulfophenyl)-2H-tetrazolium, inner salt (MTS) dye reduction assay (Promega, Madison, Wis.) and absorbance was measured at 490 nm using a Fluostar microplate reader from BMG LabTechnologies (GmbH, Offenberg, Germany). In each experiment a single value was calculated based on the mean of adhesion from six separate wells after the adhesion to plastic alone had been subtracted. The CM used as a control in the adhesion assays was obtained from confluent Wnt-5a overexpressing HB2 cells (for experiments with Wnt-5a antisense HB2 cells) or Wnt-5a overexpressing MCF-7 cells (for MDA-MB-468 cells) stably transfected with a vector over-expressing Wnt5a. A collected CM was always used within three days.
To control the specificity of the CM, it was incubated with either the Wnt-5a or a control Ab for 45 min at 37° C. Subsequently 10 μl Protein A Sepharose was added for 30 min and after the protein A-bound antibodies were collected by centrifugation the remaining supernatants were used for the experiments.
Effects of crude peptides on adhesion of Wnt-5a antisense HB2 cells to collagen. (A) Single cells were allowed to adhere for 90 min in the absence or presence of the indicated crude peptides (100 μM). The amounts of adhesive cells were analyzed as described in the methods and the results are given as means±SEM of 7 separate experiments. (B) Adhesion of Wnt-5a antisense HB2 cells to collagen was analyzed after pre-treating the cells with an anti-[…]1-integrin Ab for 45 min before letting them adhere for 90 min in the absence or presence of peptides 171 or 175 (100 μM) or CM. The amounts of adhesive cells were analyzed as described in the methods and the results are given as means±SEM of 6 separate experiments (C) The diagram outlines a control of the presently used CM. The cells were allowed to adhere to collagen I-coated wells in the absence or presence of normal CM or Wnt-5a depleted CM. The amounts of adhesive cells were analyzed as described in the methods and the results are given as means±SEM of 6 separate experiments. Ns=not significant, * p<0.05, ** p<0.01 and *** p<0.001.
Effects of the selected and pure peptides on the ability of Wnt-5a antisense HB2 cells to adhere and migrate. (A-E) The ability of the cells to adhere to collagen type I-coated wells was analyzed as previously described for FIG. 2 in the absence or presence of different concentrations of the indicated peptide. (F) Effect of the indicated peptides on migration of Wnt-5a antisense HB2 in a transwell migration assay. The cells were allowed to migrate for 18 h in the absence or presence of 100 μM peptide or 0.4 μg/ml of recombinant Wnt5a. The data are given as means±SEM of 6-7 separate experiments, each performed in triplicate. * p<0.05 and ** p<0.01.

[2] = system: DDR1; assay: Collagen-induced DDR1 phosphorylation in Wnt-5a antisense HB2 cells (immunoprecipitation/Western blot); assay type: cell-based, human; conditions: crude peptide (approximately 65% pure) 100 μM; 90 min on collagen I
Protocol: The phosphorylation status of DDR1 was analyzed as previously described (12), with the following modifications. After serum-depletion for 16 h, the cells were detached with Versene and then allowed to adhere to collagen I for 60 (MDA-MB-468) or 90 min (HB2) at 37° C. The experiments were terminated by lysing both adherent and non-adherent cells with a lysis buffer (50 mM Tris pH 7.4, 1% Triton-X, 5 mM EDTA, 5 mM EGTA, 50 mM NaCl, 10 μg/ml aprotinin, 2.5 mM benzamidine, 1 mM pefabloc, 1 μg/ml leupeptin and 1 mM Na3VO4). For immunoblotting an anti-DDR1 rabbit polyclonal Ab, sc-532 (Santa Cruz Biotech, Santa Cruz, Calif.) was used at a dilution of 1:10,000. The Ab recognizes DDR1b/c, which is essential because collagen only induces phosphorylation of the b or c isoforms of DDR1 in mammary epithelial cells (10).
Effects of crude peptides on collagen-induced DDR1 phosphorylation in Wnt-5a antisense HB2 cells. Single cells were allowed to adhere to collagen I-coated plates in the presence of the indicated crude peptide (100 μM). (A) Experiments performed in the presence of peptides 167-173. (B) Experiments performed in the presence of peptides 175-180. After 90 min the cells were lysed and DDR1 immunoprecipitated. Subsequently, the immunoprecipitates were subjected to Western blot analysis with an anti-phosphotyrosine Ab and then, after stripping, with an anti-DDR1 Ab to ascertain equal loading. The blots shown are representative of 3 separate experiments The diagrams show densitometric analysis of DDR1 phosphorylation, expressed as per cent of control.

[3] = system: MDA-MB-468 cells; assay: Adhesion of MDA-MB-468 breast cancer cells to collagen I (MTS); assay type: cell-based, human; conditions: for adhesion to collagen I, N-terminal deletion variants and formylation of peptide 175: 60 min; for MDA-MB-468 cell adhesion: control 15.3±3.6, n=6
Protocol: as §1
Peptide-induced effects on adhesion and DDR1 phosphorylation in MDA-MB-468 breast cancer cells. (A) Western blot analysis of Wnt-5a protein expression in Wnt-5a antisense and Wnt-5a over-expressing HB2 cells in comparison to MDA-MB-468 tumour cells. The blot is representative of 9 separate experiments. (B) Peptide-induced effects on MDA-MB-468 tumour cell adhesion. The cells were allowed to adhere to collagen type I-coated wells for 60 min in the absence or presence of 100 μM of the indicated peptides or CM. The amounts of adhesive cells were analyzed as described in the methods and the results are given as means±SEM of 8 separate experiments. (C) MDA-MB-468 cell adhesion to collagen I-coated wells in the absence or presence of peptide 175 or a peptide with same amino acid sequence except for a substitution of cysteine for alanine (175Ala) or CM. The amount of adherent cells was estimated as in panel A and expressed as means±SEM of 6 separate experiments, ns=not significant, ** p<0.01 and *** p<0.001. (D) Single MDA-MB-468 cells were allowed to adhere to collagen I-coated plates for 60 min in the absence or presence of the indicated peptides (100 μM), CM or recombinant Wnt-5a (0.8 µg/ml). DDR1 immunoprecipitates were Western blotted with first an anti-phosphotyrosine Ab and then after stripping with an anti-DDR1 Ab. The blots shown are representative of 6 separate experiments.
(§2) Effects of peptide 175 modifications on its ability to induce MDA-MB-468 tumour cell adhesion and migration. (A) The cells were allowed to adhere for 60 min to collagen-I coated wells in the absence or presence of peptide 175, three stepwise N-terminal deletion variants of peptide 175 or a formylated version of the tested hexapeptide derived from peptide 175. The amounts of adhesive cells were analyzed as described in the methods and the results are given as means±SEM of 6 separate experiments. (B and C) The cells were allowed to migrate for 18 h in the absence or presence of 1 or 10 μM of peptide 175 (B) or the formylated hexapeptide (C). The data are given as means±SEM of 6 separate experiments, each performed in triplicate. * p<0.05, p<0.01.

[4] = target: Frz-5 receptor (Homo sapiens, UniProt Q13467); assay: MDA-MB-468 cell migration with Frz-5 receptor blocking Ab or control anti-Frz-2 Ab; assay type: cell-based; set-up: endogenous in cells; host or cells: MDA-MB-468; conditions: formylated hexapeptide 100 μM; Ab 5 μg/ml; 18 h
Protocol: The peptide […], corresponding to amino acids 198-217 in the ectodomain of the human Frz-5 receptor was as previously described used to generate a Frz-5 receptor blocking Ab (13). The peptide […], corresponding to amino acids 202-220 in the ectodomain of the human Frz-2 receptor, was used to generate a control anti-Frz-2 Ab. The synthesis of the peptides (the italic letters indicate the Frz-5 and Frz-2 sequences, the cysteine was added for raising and purifying the Ab) and the production of rabbit anti-Frz-5 and anti-Frz-2 antisera were managed by AgriSera (Vännäs, Sweden; permit A69-04 from Ume(a) animal ethic committe). The antisera were affinity purified in the laboratory by coupling the respective peptide antigen to Sulfolink Sepharose over which the respective antisera was then eluted.
Cell migration analyses were performed in a modified Boyden chamber with a polycarbonate membrane (10 μm thick with a porous diameter of 8.0 μm) separating the two chambers (Transwell®; Costar, Cambridge, Mass.). As indicated in some experiments the membranes were coated with collagen by adding collagen-I (10 μg/ml) diluted in 0.25% acetic acid to the upper chamber for 1 h at 37° C., after which it was washed three times with PBS. […] After washing the membranes the number of stained cells per membrane and well was counted in an inverted microscope. […]

[5] = system: MDA-MB-468 cells; assay: Migration of MDA-MB-468 cells in modified Boyden chamber; assay type: cell-based, human; conditions: 18 h
Protocol: The HB2 mammary epithelial cell line, a subclone of the MTSV-1.7 cell line, originating from the laboratory of Dr. J. Taylor-Papadimitriou (11) was used. The HB2 cells were cultured in DMEM supplemented with 10% FBS, 5 U/mi penicillin, 0.5 U/ml streptomycin, 2 mM glutamine, 10 μg/ml bovine insulin and 5 μg/ml hydrocortisone. The human mammary carcinoma cell lines MCF-7 and MDA-MB-468 were cultured in DMEM supplemented with 10% FBS, 5 U/ml penicillin, 0.5 U/ml streptomycin and 2 mM glutamine. The pH-experiments were done in MEM supplemented with 10 mM Tris, 0.5% BSA, 5 U/ml penicillin, 0.5 U/ml streptomycin and 2 mM glutamine. The pH 7.4-medium was further supplemented with 4 mM sodium bicarbonate whereas the pH 6.7-medium was not. All cells were incubated at 37° C. in 95% air and 5% CO2.
Cell migration analyses were performed in a modified Boyden chamber with a polycarbonate membrane (10 μm thick with a porous diameter of 8.0 μm) separating the two chambers (Transwell®; Costar, Cambridge, Mass.). As indicated in some experiments the membranes were coated with collagen by adding collagen-I (10 μg/ml) diluted in 0.25% acetic acid to the upper chamber for 1 h at 37° C., after which it was washed three times with PBS. Each experiment was initiated by detaching the cells by Versene treatment for 10-20 min at 37° C., washed, and re-suspended as a single cell suspension in serum-free DMEM medium supplemented with 0.5% BSA. Together with the indicated agonist a 0.2 ml cell suspension (containing 25,000 MDA-MB-468 or 50,000 HB2 cells) was then added to the upper chamber of the transwell. The lower chamber was filled with 0.6 ml serum-free but BSA-containing DMEM medium supplemented with 1 ng/ml of the chemoattractant IGF-I. As a control, IGF-I was excluded in some wells in each separate experiment. The cells were allowed to migrate in the Boyden chamber for 18 h at 37° C. in a humidified atmosphere of 95% air and 5% CO2. The experiments were terminated by removing the non-migratory cells with a cotton-tipped applicator from the upper surface of the membranes. The remaining cells on the lower surface that had migrated through the membrane were stained for 20 min with 0.5% crystal violet diluted in 20% methanol/80% water. After washing the membranes the number of stained cells per membrane and well was counted in an inverted microscope. The value from each separate experiment represents the median value of three individual wells.
Peptide-induced effects on MDA-MB-468 tumour cell migration and their content of F-actin. (A) The cells were allowed to migrate for 18 h in the absence or presence of the indicated peptides (100 μM) The data in panel A are expressed as means±SEM of 8 separate experiments, each performed in triplicate. * p<0.05. (B) The cells were allowed to adhere to collagen I-coated cover glasses for 18h in the absence or presence of peptide 175 (100 μM). The cells were then stained with Alexa488-Phalloidin as described in the methods section. The illustrated micrographs are representative of 5 separate experiments.
as §2
Effects of Frz-5 receptor blocking and reduced pH on the abilities of the formylated hexapeptide and Wnt-5a to inhibit tumour cell migration. […]

Sequence of Frz-5 receptor (Q13467 27-585): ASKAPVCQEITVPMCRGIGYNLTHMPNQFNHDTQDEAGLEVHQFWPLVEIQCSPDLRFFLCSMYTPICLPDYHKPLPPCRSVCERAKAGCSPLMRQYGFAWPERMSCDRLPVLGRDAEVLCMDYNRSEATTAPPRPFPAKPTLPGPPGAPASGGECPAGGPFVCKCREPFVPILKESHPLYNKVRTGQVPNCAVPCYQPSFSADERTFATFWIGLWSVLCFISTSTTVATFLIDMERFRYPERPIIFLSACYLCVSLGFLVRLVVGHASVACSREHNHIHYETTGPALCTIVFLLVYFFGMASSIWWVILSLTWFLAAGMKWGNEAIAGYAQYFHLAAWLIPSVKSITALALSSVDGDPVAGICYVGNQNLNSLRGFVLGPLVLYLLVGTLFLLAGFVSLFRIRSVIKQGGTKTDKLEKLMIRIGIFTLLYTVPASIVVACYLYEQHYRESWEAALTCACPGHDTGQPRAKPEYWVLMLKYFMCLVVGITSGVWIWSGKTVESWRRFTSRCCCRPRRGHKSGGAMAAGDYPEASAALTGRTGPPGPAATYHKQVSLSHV

DARERERIHAKGSYE [peptide 168, Wnt-5a aa 183-197]
adhesion to collagen I ([1]; crude peptide (65% pure) 100 μM, 90 min): did not have any effect on adhesion
DDR1 phosphorylation [2]: significant DDR1 phosphorylation

EGMDGCEL (Human) [octapeptide, N-terminal deletion variant of peptide 175]
adhesion to collagen I, N-terminal deletion variants and formylation of peptide 175 [3]: still had adhesion-increasing effects

LGTQGRLCNKTSEGMDGCEL (Human) [peptide 174, Wnt-5a aa 303-322]
adhesion to collagen I, concentration-dependent analysis [1]: not as effective as the shorter peptide 175

MDGCEL [hexapeptide, N-terminal deletion variant of peptide 175]
adhesion to collagen I, N-terminal deletion variants and formylation of peptide 175 [3]: no effect was detectable and none

VKAKKATEIVDQFVA [compound 170, Wnt-5a aa 350-364; the 3 cysteines exchanged to alanines]
adhesion to collagen I, concentration-dependent analysis [1]: lost or less consistent
DDR1 phosphorylation [2]: significant DDR1 phosphorylation

fMet-Leu-Phe (MLF) [reference compound]
MDA-MB-468 cell adhesion [3]: 15.7±4.5
MDA-MB-468 cell adhesion ([3]; listed as N-formyl-Met-Leu-Phe): no effect

formyl-Met-Asp-Gly-Cys-Glu-Leu (For-MDGCEL) [formylated hexapeptide]
effect on migration in presence of anti-Frz-5 or anti-Frz-2 Ab [4]: mediated via the Frz-5 receptor
inhibition of migration at pH 6.7 versus pH 7.4 ([5]; 10 μM): as effective in inhibiting MDA-MB-468 cell migration at pH 6.7 as at pH 7.4
motility (migration) ([5]; 10 μM): significantly impaired the motility
minimal concentration that had a significant effect on migration [5]: 10 µM
adhesion to collagen I, N-terminal deletion variants and formylation of peptide 175 [3]: restored, and possibly even potentiated its effect on adhesion
